Data taken from US7811760B2, “Vector and method for detecting the change in transcription amount” (priority 2006, dated 2010).

Biological target: T1, aryl hydrocarbon receptor (Rattus norvegicus, UniProt P41738, Q794H)
T1 construct: The SD-line rat AhR gene-coding region was amplified from the reverse-transcribed sample by means of PCR; V5-His (C-terminal tag of vector pcDNA4/V5-His B); expressed in transfected cells; host or cells: mouse neuroblastoma Neuro2a, transient transfection with LIPOFECTAMINE 2000
T1 sequence (P41738 10-853 Q794H): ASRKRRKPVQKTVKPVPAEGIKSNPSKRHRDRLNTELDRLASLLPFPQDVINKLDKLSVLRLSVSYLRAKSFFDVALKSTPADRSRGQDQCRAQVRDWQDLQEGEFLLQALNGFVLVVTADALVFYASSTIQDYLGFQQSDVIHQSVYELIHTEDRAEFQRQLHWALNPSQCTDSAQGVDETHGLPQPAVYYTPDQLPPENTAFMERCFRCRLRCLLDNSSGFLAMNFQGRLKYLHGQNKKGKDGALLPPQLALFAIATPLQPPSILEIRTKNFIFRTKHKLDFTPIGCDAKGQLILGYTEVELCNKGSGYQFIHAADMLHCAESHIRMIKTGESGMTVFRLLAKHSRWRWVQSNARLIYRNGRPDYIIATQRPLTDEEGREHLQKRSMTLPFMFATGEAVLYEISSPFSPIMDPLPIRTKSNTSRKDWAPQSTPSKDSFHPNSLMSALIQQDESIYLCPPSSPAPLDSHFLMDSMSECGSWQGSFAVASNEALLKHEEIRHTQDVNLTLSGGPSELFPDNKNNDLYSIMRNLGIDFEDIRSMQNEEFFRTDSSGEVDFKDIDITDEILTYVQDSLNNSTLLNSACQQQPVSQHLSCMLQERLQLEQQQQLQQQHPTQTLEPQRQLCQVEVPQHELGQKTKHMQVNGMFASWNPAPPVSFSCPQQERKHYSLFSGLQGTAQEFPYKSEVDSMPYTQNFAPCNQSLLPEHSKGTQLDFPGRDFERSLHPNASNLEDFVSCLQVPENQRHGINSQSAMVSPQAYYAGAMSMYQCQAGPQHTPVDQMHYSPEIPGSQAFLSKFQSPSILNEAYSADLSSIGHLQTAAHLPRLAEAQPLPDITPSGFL
Assay: Reporter gene (luciferase) assay in Neuro2a cells carrying PGV-THp25 (2.5 kbp TH transcriptional regulatory region) and pcDNA4-rAhR
Type: cell-based, SD-line rat
Settings: PGV-pTH25-introduced Neuro2a; for expression amount of the reporter gene (increase versus unexposed): 30 hours
Source text: In this Example, the PGV-THp25 prepared in Example 2 was used. Neuro2a was used as the cell.
Two kinds of vectors, pcDNA4-rAhR (Example 1) and pcDNA4/V5-His/lacZ (Invitrogen), were introduced into Neuro2a, together with PGV-THp25. pcDNA4-rAhR was introduced for constitutive expression of the SD-line rat AhR gene (SEQ ID No: 10) in the cell, and pcDNA4/V5-His/lacZ was introduced for normalization of the vector transfection efficiency.
The vectors were introduced into the cell by using LIPOFECTAMINE 2000 (Invitrogen). The cell was cultured on a 24-well plate, and the operation was performed according to the manual of Invitrogen. A total of 0.8 μg of vectors (0.4 μg of PGV-THp25, 0.2 μg of pcDNA4-rAhR, and 0.2 μg of pcDNA4/V5-His/lacZ) suspended in 50 μl of OPTI-MEM medium and 2 μl of LIPOFECTAMINE 2000 suspended in 50 μl of OPTI-MEM medium were mixed, and incubated at room temperature for 20 minutes to form nucleic acid/LIPOFECTAMINE 2000 complex. The obtained suspension containing the complex was added to Neuro2a cell culture, which has been previously cultured overnight in 500 μl of DF1:1 medium (containing 10% fetal calf serum) (0.8×10^5 cells were seeded on previous day), to allow incorporation of the vectors into the cell. The cell was cultured additionally for 24 hours after the transfection, for the purpose of improvement in vector incorporation efficiency and expression of the proteins derived from the introduced vectors.
As the test substance, a solution of dioxin (2,3,7,8-tetrachlorodibenzo-p-dioxine, TCDD) in dimethylsulfoxide (manufactured by Kanto Kagaku Co. Inc.) was used. After the transfection and the additional incubation for 24 hours, the medium was replaced with a fresh medium containing TCDD (at 0, 0.01, 1, or 100 nM), and the cell was cultured additionally for 30 hours. After 30 hours, the medium was removed from the 24-well plate, and the cell was washed with phosphate buffer twice. 100 μl of a protein extraction solution (manufactured by TOYO B-NET) was added to each well, and the cell suspension was stirred gently at room temperature for 15 minutes and then frozen at −80° C. The frozen solution was thawed at room temperature, and the resulting solution was recovered in a tube and diluted ten times with a protein extraction reagent containing 1 mg/ml bovine serum albumin. Luciferase and β-galactosidase activities in the diluted solution were measured, and the expression amount of the reporter gene was calculated as a relative luminescence intensity per 1 ng of β-galactosidase per second (RLU/sec/ng β-galactosidase).

**Q.** For `Clc1cc2c(cc1Cl)Oc1cc(Cl)c(Cl)cc1O2` [TCDD, 2,3,7,8-tetrachlorodibenzo-p-dioxine], which “expression amount of the reporter gene (increase versus unexposed)” value (0.01 nM TCDD) is on record?
**A.** approximately 1.2 times

**Q.** What about the “expression amount of the reporter gene (increase versus unexposed)” value (1 nM TCDD) of the same compound?
**A.** approximately 1.6 times

**Q.** What about the “expression amount of the reporter gene (increase versus unexposed)” value (100 nM TCDD) of the same compound?
**A.** approximately 1.8 times

**Q.** What about the “expression amount of the reporter gene, dose dependence” value (0.01 to 100 nM TCDD) of the same compound?
**A.** increased dose-dependently
